Assay [1] concerns bleomycin-induced pulmonary fibrosis. The assay is described as follows: Idiopathic pulmonary fibrosis (IPF) model. It counts as in vivo, Sprague Dawley rats. The settings on record: Day 29. The procedure:
Experimental animals and grouping: 40 adult male Sprague Dawley rats, after 7 days of adaptive feeding, were divided into 4 groups: sham-operation group (Sham), IPF model group (no treatment; Model), test group (Compound B) and positive control group (Positive Control).
The test were administered Compound B, at a dose of 130 μg/rat, which was introduced by aerosolized inhalation. Oral administration of pirfenidone (Etuary®, Beijing Continent Pharmaceutical Co., Ltd., Beijing, China) as a 120 mg/kg single-bolus dose served as the positive control.
A pulmonary fibrosis model was established by intratracheal instillation of bleomycin. The rats were anaesthetised and placed on an operating table in the supine position, to expose the trachea. Bleomycin (5 mg/kg) saline solution was injected into the trachea through the gap between the tracheal cartilage rings. The sham-operation group were given an equal volume of normal saline. Shortly after administration, the rats were lifted vertically and were rotated, in order to evenly disperse the drug. Once the rats had recovered, after approximately 5 days, they were administrated the different drugs according to the plan for 28 days, consecutively.
The exhaust volume of the atomizing device was 0.15 mL per minute. The inhalation time for each rat was 1 minute.
At Day 29 following drug administration, rats were anesthetized by i.p. injection of chloral hydrate. After orbital blood collection, the rats were sacrificed. The thoracic cavity was quickly opened and the lung was collected for further analysis. The lung wet weight was measured, and the lung coefficient was calculated (lung wet weight/rat weight×1000). The tissue was stored in refrigerator at −80° C. for further use.
A piece of lung tissue was accurately weighed, and 9 times the weight of saline was added. Then, the tissue was homogenized and centrifuged for 10 minutes at 3000 rpm. The homogenate was used to detect the expression of the transformation growth factor (TGF-β1), tumor necrosis factor-α (TNF-α) and alpha-smooth muscle actin (α-SMA). Standard ELISA methods were used for the detection. The contents of malonaldehyde (MDA) and the activity of superoxide dismutase (SOD) in lung tissue were also detected.

Assay [2] has as its system ammonia induced cough. The assay is described as follows: Antitussive experiment, ammonia induced cough method. It counts as in vivo, ICR mice. Here is the method: 36 ICR mice were randomly divided into 3 groups according to their body weight, labelled a CMC-Na (Negative) control group, a dextromethorphan hydrobromide (Positive) control group and a Compound B (B) group. Each group contained 12 mice, with 6 males and 6 females in each.
Compound B was administered via atomization inhalation using a YLS-8A Multifunctional cough and sputum inducing device (Jinan Yiyan Science and Technology Co., Ltd.) (0.15 ml/min) for 1 minute, once daily for 5 days. And the positive control drug was administered once daily by intragastric administration at 10 mg/kg for 5 days.
The mice were placed in an inverted beaker 1, 2, and 4 hours after the last drug administration. 1 mL of aqueous ammonia (25.0 to 28.0%) was placed on top of a boiling water bath and was evaporated into the beaker.
The time for mice to receive ammonia exposure was determined by a method characterized by analyzing data immediately after one test or a batch of tests. The results of the previous analysis determined how to conduct the next test or batch of tests.
The difference between the logarithmic value of two adjacent time periods was 0.1.
The number of coughs within 1 minute was detected using a stethoscope. If a mouse coughed three or more times over one minute, this was labelled as called ‘cough’, and less than three times in one minute was labelled ‘cough free’.
The EDT50 was defined as the ammonia stimulating time at which half mice developed a “cough”, calculated by the equation: […]
(c equals the sum of r and x, r is the number of animals in each stimulating time group, x is the logarithm of stimulation time and n was the number of animals in each group). lg is a base 10 logarithmic value.
In Table 15, R is the EDT50 in treatment group divided by the EDT50 in the Control group expressed as a percentage.

Where [3] appears, read: lung tissue homogenate, Compound B 130 μg/rat aerosolized inhalation, pirfenidone gavage, 28 days.

Where a name gives a salt, the structure may show the parent alone.

In assay [1] (setting [3]), `Cc1ccc(=O)n(-c2ccccc2)c1` [Positive Control, pirfenidone, reference compound] yielded a TGF-β1 of 0.41 ± 0.03 ng/mg protein, a TNF-α of 208.41 ± 17.73 pg/mg protein and a α-SMA of 10.98 ± 0.93 pg/mg protein. For the same molecule, in assay [1] (lung tissue), the MDA came out at 0.24 ± 0.05 U/mg protein and the SOD was 48.59 ± 2.36 U/mg protein.

Turning to `COc1ccc2c(c1)[C@]13CCCC[C@@H]1[C@H](C2)N(C)CC3` [Positive, dextromethorphan hydrobromide, reference compound], the R in assay [2] (1 hour after admin., EDT50 in treatment group divided by EDT50 in Control group) worked out at 241.7%; in assay [2] (2 hours after admin., EDT50 treatment/Control), 207.3%; in assay [2] (4 hours after admin., EDT50 treatment/Control) it was 184.8%. Moreover, the EDT50 in assay [2] (1 hour after last administration, B 195 μg/mouse atomization inhalation, Positive 10 mg/kg intragastric, once daily 5 days) turned out to be 50.1 s; in assay [2] (2 hours after last administration), 44.7 s; in assay [2] (4 hours after last administration), 41.4 s.

Source of the values: US20250041377A1, “PHARMACEUTICAL USE” (ENLITISA (SHANGHAI) PHARMACEUTICAL CO., LTD., priority 2018, published 2025).
